Measured values taken from PubChem BioAssay AID328 (DTP/NCI, 2004).
Where “and” joins values, the source holds several entries; their conditions need not be identical. Equal values may be shown once. Toxic doses and inconclusive results are not listed.

Test system: BDF1 mice, P388 leukemia ip, median survival T/C
Experiment: NCI In Vivo Anticancer Drug Screen. Data for tumor model P388 Leukemia (intraperitoneal) in B6D2F1 (BDF1) mice
Conditions: endpoint: median survival time, higher = longer survival
Method in brief: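 Antitumour effect was judged in vivo: survival in drug-treated mice, normalised to that of vehicle-dosed controls, gives the reported T/C.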

[1] = dose: 100.0 mg/kg/injection, schedule: Q01DX009 (ip), vehicle: saline
[2] = dose: 200.0 mg/kg/injection, schedule: Q01DX009 (ip), vehicle: saline
[3] = dose: 400.0 mg/kg/injection, schedule: Q01DX009 (ip), vehicle: saline
[4] = dose: 50.0 mg/kg/injection, schedule: Q01DX009 (ip), vehicle: saline with Tween-80
[5] = dose: 100.0 mg/kg/injection, schedule: Q01DX009 (ip), vehicle: saline with Tween-80
[6] = dose: 200.0 mg/kg/injection, schedule: Q01DX009 (ip), vehicle: saline with Tween-80
[7] = dose: 100.0 mg/kg/injection, schedule: Q01DX009 (ip), vehicle: Klucel (hydroxypropylcellulose) (HPC)
[8] = dose: 200.0 mg/kg/injection, schedule: Q01DX009 (ip), vehicle: Klucel (hydroxypropylcellulose) (HPC)
[9] = dose: 400.0 mg/kg/injection, schedule: Q01DX009 (ip), vehicle: Klucel (hydroxypropylcellulose) (HPC)
[10] = dose: 100.0 mg/kg/injection, schedule: Q04DX003 (ip), vehicle: Klucel (hydroxypropylcellulose) (HPC)
[11] = dose: 200.0 mg/kg/injection, schedule: Q04DX003 (ip), vehicle: Klucel (hydroxypropylcellulose) (HPC)
[12] = dose: 400.0 mg/kg/injection, schedule: Q04DX003 (ip), vehicle: Klucel (hydroxypropylcellulose) (HPC)
[13] = dose: 50.0 mg/kg/injection, schedule: Q01DX009 (ip), vehicle: saline

Compound: Cc1cc(NC(=O)Nc2ccc(C3=NCCCN3)cc2)ccc1NC(=O)Nc1ccc(C2=NCCCN2)cc1
- T/C (dose: 29.0 mg/kg/injection, schedule: Q01DX009 (ip), vehicle: saline): 166 % of control
- T/C (dose: 45.0 mg/kg/injection, schedule: Q01DX009 (ip), vehicle: saline): 153 % of control
- T/C (dose: 65.0 mg/kg/injection, schedule: Q01DX009 (ip), vehicle: saline): 157 % of control
- T/C [1]: 216 % of control
- T/C (dose: 130.0 mg/kg/injection, schedule: Q01DX009 (ip), vehicle: saline): 243 % of control
- T/C [2]: 227 % of control and 219 % of control
- T/C (dose: 300.0 mg/kg/injection, schedule: Q01DX009 (ip), vehicle: saline): 169 % of control
- T/C [3]: 98 % of control

Compound: O=c1[nH]c(=O)n(C2CC(O)C(CO)O2)cc1I (centres undefined)
- T/C (dose: 10.0 mg/kg/injection, schedule: Q01DX009 (ip), vehicle: saline with Tween-80): 109 % of control
- T/C (dose: 20.0 mg/kg/injection, schedule: Q01DX009 (ip), vehicle: saline with Tween-80): 107 % of control
- T/C (dose: 40.0 mg/kg/injection, schedule: Q01DX009 (ip), vehicle: saline with Tween-80): 92 % of control and 109 % of control
- T/C (dose: 80.0 mg/kg/injection, schedule: Q01DX009 (ip), vehicle: saline with Tween-80): 106 % of control and 118 % of control
- T/C (dose: 320.0 mg/kg/injection, schedule: Q01DX009 (ip), vehicle: saline with Tween-80): 90 % of control

Compound: COc1ccc2c(c1)CC1NCCc3cc4c(c-2c31)OCO4 (centres undefined)
- T/C [4]: 114 % of control
- T/C [5]: 97 % of control

Compound: O=C1c2ccccc2C(=O)C(N2CCOCC2)C1Cl (centres undefined)
- T/C (dose: 3.0 mg/kg/injection, schedule: Q01DX009 (ip), vehicle: saline with Tween-80): 98 % of control
- T/C (dose: 6.0 mg/kg/injection, schedule: Q01DX009 (ip), vehicle: saline with Tween-80): 97 % of control
- T/C (dose: 12.0 mg/kg/injection, schedule: Q01DX009 (ip), vehicle: saline with Tween-80): 100 % of control

Compound: CCS(=O)(=O)C(N=Nc1ccccc1)S(=O)(=O)CC
- T/C (dose: 20.0 mg/kg/injection, schedule: Q01DX009 (ip), vehicle: Klucel (hydroxypropylcellulose) (HPC)): 107 % of control
- T/C (dose: 40.0 mg/kg/injection, schedule: Q01DX009 (ip), vehicle: Klucel (hydroxypropylcellulose) (HPC)): 101 % of control
- T/C (dose: 80.0 mg/kg/injection, schedule: Q01DX009 (ip), vehicle: Klucel (hydroxypropylcellulose) (HPC)): 107 % of control

Compound: Clc1cccc(NC2=NCCN=C(Nc3cccc(Cl)c3)SS2)c1
- T/C [4]: 111 % of control
- T/C [5]: 102 % of control
- T/C [6]: 111 % of control

Compound: FC(F)(F)c1nc2cccc3c2n1CCC3
- T/C (dose: 50.0 mg/kg/injection, schedule: Q04DX003 (ip), vehicle: saline with Tween-80): 100 % of control
- T/C (dose: 100.0 mg/kg/injection, schedule: Q04DX003 (ip), vehicle: saline with Tween-80): 91 % of control

Compound: O=C(/C=C/C(=O)Oc1ccccc1)Oc1ccccc1
- T/C [7]: 90 % of control
- T/C [8]: 109 % of control
- T/C [9]: 90 % of control

Compound: C(=N\OCCc1ccccc1)/c1cccnc1
- T/C (dose: 100.0 mg/kg/injection, schedule: Q01DX009 (ip), vehicle: saline sonified): 100 % of control
- T/C (dose: 200.0 mg/kg/injection, schedule: Q01DX009 (ip), vehicle: saline sonified): 110 % of control

Compound: COc1ccc(C2=NNC(=O)OC2c2ccccc2)cc1 (centres undefined)
- T/C (dose: 25.0 mg/kg/injection, schedule: Q01DX009 (ip), vehicle: saline with Tween-80): 92 % of control and 102 % of control
- T/C [4]: 91 % of control and 96 % of control and 99 % of control
- T/C [5]: 100 % of control and 110 % of control
- T/C [6]: 91 % of control and 102 % of control and 105 % of control

Compound: CC1=CC(OC2CCCCO2)C2CC1C2(C)C (centres undefined)
- T/C [10]: 112 % of control
- T/C [11]: 112 % of control
- T/C [12]: 104 % of control

Compound: CC(C)(C)OC(=O)NCC(=O)NNC(=O)OC(C)(C)C
- T/C (dose: 100.0 mg/kg/injection, schedule: Q04DX003 (ip), vehicle: saline): 104 % of control
- T/C (dose: 200.0 mg/kg/injection, schedule: Q04DX003 (ip), vehicle: saline): 113 % of control
- T/C (dose: 400.0 mg/kg/injection, schedule: Q04DX003 (ip), vehicle: saline): 104 % of control

Compound: C[As](C)SC(CO)C1OC2OC(C)(C)OC2C1O (centres undefined)
- T/C (dose: 12.5 mg/kg/injection, schedule: Q01DX009 (ip), vehicle: saline + alcohol): 97 % of control
- T/C (dose: 25.0 mg/kg/injection, schedule: Q01DX009 (ip), vehicle: saline + alcohol): 100 % of control
- T/C (dose: 50.0 mg/kg/injection, schedule: Q01DX009 (ip), vehicle: saline + alcohol): 106 % of control

Compound: OCc1cccnc1
- T/C [13]: 93 % of control
- T/C [1]: 100 % of control
- T/C [2]: 100 % of control
- T/C [3]: 108 % of control

Compound: Cc1c(Cl)c(Cl)c(C)c(Cl)c1Cl
- T/C [10]: 94 % of control
- T/C [11]: 100 % of control
- T/C [12]: 100 % of control

Compound: COc1cc2cc(c1Cl)N(C)C(=O)C[C@H](OC(=O)CBr)[C@]1(C)O[C@@H]1[C@H](C)[C@@H]1C[C@@](O)(NC(=O)O1)[C@H](OC)C=C/C=C(\C)C2
- T/C (dose: 0.8 micrograms/kg/injection, schedule: Q01DX009 (ip), vehicle: saline + alcohol): 153 % of control
- T/C (dose: 1.5 micrograms/kg/injection, schedule: Q01DX009 (ip), vehicle: saline + alcohol): 170 % of control
- T/C (dose: 3.1 micrograms/kg/injection, schedule: Q01DX009 (ip), vehicle: saline + alcohol): 180 % of control
- T/C (dose: 6.2 micrograms/kg/injection, schedule: Q01DX009 (ip), vehicle: saline + alcohol): 183 % of control
- T/C (dose: 12.5 micrograms/kg/injection, schedule: Q01DX009 (ip), vehicle: saline + alcohol): 153 % of control and 200 % of control
- T/C (dose: 25.0 micrograms/kg/injection, schedule: Q01DX009 (ip), vehicle: saline + alcohol): 162 % of control and 210 % of control
- T/C (dose: 50.0 micrograms/kg/injection, schedule: Q01DX009 (ip), vehicle: saline + alcohol): 189 % of control and 210 % of control
- T/C (dose: 100.0 micrograms/kg/injection, schedule: Q01DX009 (ip), vehicle: saline + alcohol): 232 % of control and 120 % of control

Compound: OCC1CC1c1ccccc1 (centres undefined)
- T/C [4]: 101 % of control
- T/C [5]: 102 % of control
- T/C [6]: 109 % of control

Compound: COc1ccc(C(=O)CCCCl)cc1
- T/C [7]: 100 % of control
- T/C [8]: 110 % of control
- T/C [9]: 95 % of control

Compound: O=C(c1ccccc1)C1OC1c1ccc([N+](=O)[O-])cc1 (centres undefined)
- T/C (dose: 100.0 mg/kg/injection, schedule: Q04DX003 (ip), vehicle: saline sonified): 104 % of control
- T/C (dose: 200.0 mg/kg/injection, schedule: Q04DX003 (ip), vehicle: saline sonified): 100 % of control
- T/C (dose: 400.0 mg/kg/injection, schedule: Q04DX003 (ip), vehicle: saline sonified): 100 % of control

Compound: Nc1nc(=O)n(CC(=O)c2ccco2)cc1F
- T/C [13]: 109 % of control
- T/C [1]: 95 % of control and 100 % of control
- T/C [2]: 118 % of control

Compound: C1CCCC(NC2=NCCO2)CC1
- T/C (dose: 6.25 mg/kg/injection, schedule: Q04DX003 (ip), vehicle: saline with Tween-80): 100 % of control
- T/C (dose: 12.5 mg/kg/injection, schedule: Q04DX003 (ip), vehicle: saline with Tween-80): 100 % of control
- T/C (dose: 25.0 mg/kg/injection, schedule: Q04DX003 (ip), vehicle: saline with Tween-80): 104 % of control

Compound: CC(C)(C)C(O)CC(C)(O)C(C)(C)C (centres undefined)
- T/C (dose: 6.3 mg/kg/injection, schedule: Q01DX009 (ip), vehicle: Klucel (hydroxypropylcellulose) (HPC)): 101 % of control
- T/C (dose: 12.5 mg/kg/injection, schedule: Q01DX009 (ip), vehicle: Klucel (hydroxypropylcellulose) (HPC)): 107 % of control
- T/C (dose: 25.0 mg/kg/injection, schedule: Q01DX009 (ip), vehicle: Klucel (hydroxypropylcellulose) (HPC)): 108 % of control

Compound: CCN(CC)CCNC(=O)c1ccc(COc2ccccc2)cc1
- T/C (dose: 50.0 mg/kg/injection, schedule: Q01DX005 (ip), vehicle: saline): 97 % of control
- T/C (dose: 100.0 mg/kg/injection, schedule: Q01DX005 (ip), vehicle: saline): 111 % of control
- T/C (dose: 200.0 mg/kg/injection, schedule: Q01DX005 (ip), vehicle: saline): 97 % of control

Compound: CCN(CC)C(=O)c1ccc([N+](=O)[O-])cc1
- T/C (dose: 50.0 mg/kg/injection, schedule: Q01DX009 (ip), vehicle: Klucel (hydroxypropylcellulose) (HPC)): 103 % of control
- T/C (dose: 50.0 mg/kg/injection, schedule: Q04DX003 (ip), vehicle: Klucel (hydroxypropylcellulose) (HPC)): 95 % of control
- T/C [7]: 100 % of control
- T/C [8]: 89 % of control
- T/C [11]: 104 % of control

Compound: Oc1cc(CN(CCCl)CCCl)c(O)cc1CN(CCCl)CCCl
- T/C (dose: 0.63 mg/kg/injection, schedule: Q01DX010 (ip), vehicle: saline): 170 % of control
- T/C (dose: 1.25 mg/kg/injection, schedule: Q01DX010 (ip), vehicle: saline): 163 % of control and 210 % of control
- T/C (dose: 2.5 mg/kg/injection, schedule: Q01DX010 (ip), vehicle: saline): 177 % of control and 220 % of control
- T/C (dose: 5.0 mg/kg/injection, schedule: Q01DX010 (ip), vehicle: saline): 165 % of control
